Test results from patent US12606508B2, “Cannabis extracts and uses thereof” (priority 2020, dated 2026).
pIC50, pKi: −log10 of the molar value. “Also recorded” adds a separate entry of the source. Where two headings read alike, the source gives them in different places.

Legend:
human CB2 receptor = target: T1, human CB2 receptor (Homo sapiens, UniProt P34972); assay: Radioligand binding assay at human CB2 receptor ([^3H]WIN 55212-2 displacement, Eurofins Discovery)
T1 construct: Eurofins Discovery (contract assay)
Method: 2.2.4 Binding affinity at human CB1 and CB2 receptors. The binding affinity of (−)-trans-Δ^9-THCB against purified human CB1 and CB2 receptors was determined in a radioligand binding assay. The capability of the ligand to displace radiolabeled [^3H]
Binding at CB1 and CB2 Receptors. The binding affinity of (−)-trans-Δ^9-THCB against human CB1 and CB2 receptors was determined in a radioligand binding assay performed by Eurofins Discovery. The compound was tested at ten concentrations, ranging from 1 nM to 30 μM, in duplicate. The compound binding was calculated as a % inhibition of the binding of a radioactively labeled ligand specific for each target. […] The results were expressed as a percent inhibition of control specific binding obtained in the presence of the tested compounds using eq. 1.
The IC50 values (concentration causing a half-maximal inhibition of control specific binding) were determined by non-linear regression analysis of the competition curves generated with mean replicate values (eq. 2)^55.
Where Y is the specific binding, A is the left asymptote of the curve, D is the right asymptote f the curve, C is the compound concentration, C50 is the IC50 value and nH is the slope factor. […] The inhibition constants (Ki) were calculated using the Cheng Prusoff equation: […]
3.1.4 Binding affinity at human CB1 and CB2 receptors. […] The binding affinity of (−)-trans-Δ^9-THCP against human CB1 and CB2 receptors was assessed by Eurofins Discovery using a radioligand binding assay. […] Eq. 1 was employed to calculate the percent inhibition of control specific binding obtained in the presence of the tested compounds. […]
Where Y is the specific binding, A is the left asymptote of the curve, D is the right asymptote f the curve, C is the compound concentration, C50 is the IC50 value and nH is the slope factor. […] The inhibition constants (Ki) were determined using the Cheng Prusoff equation (eq. 3): […]

CD-1 mice = assay: Formalin test in mice; assay type: in vivo; details: 3 mg/kg, i.p., 20 min before formalin; n=5
Method: Formalin test in mice. Male CD-1 mice 6-8 weeks (Envigo, Italy), were housed under controlled conditions (12 h light/12 h dark cycle; temperature 20-22 C; humidity 55-60%) with chow and tap water available ad libitum. All surgeries and experimental procedures were approved by the Animal Ethics Committee of University of Campania “L. Vanvitelli” (Naples). Animal care was in compliance with Italian (D.L. 116/92) and European Commission (O.J. of E.C. L358/1 18/12/86) regulations on the protection of laboratory animals. All efforts were made to minimize animal suffering and to reduce the number of animals used. All the experiments were performed in a randomized manner by the same operator blind to pharmacological treatments. Mice weighing 28-32 g were used after 1 week-acclimation period and received formalin (1.25% in saline, 30 μL) in the dorsal surface of one side of the hind-paw. Each mouse, randomly assigned to one of the experimental groups (n=5), was placed in a plexiglass cage and allowed to move freely for 15-20 min. A mirror was placed at a 45° angle under the cage to allow full view of the hind-paws. Lifting, favoring, licking, shaking and flinching of the injected paw were recorded as nocifensive behavior.^61 The total time of the nociceptive response was measured every 5 min for 60 minutes and expressed in min (mean±SEM). Mice received vehicle (0.5% DMSO in saline) or different doses of Δ^9-THCB (2, 3 and 5 mg/kg, i.p.) 20 min before formalin injection alone or in combination with AM251 (0.5 mg/kg, i.p.) or AM630 (1 mg/kg, i.p.). The antagonists were administered 10 min before drugs injection.
Statistics for in vivo experiments. Data are represented as means±standard error of the mean (S.E.M). Statistical analysis of the data was performed by analysis of variance two-way ANOVA followed by Bonferroni post hoc or Dunnett's multiple comparison test. All statistical analyses were performed by using GraphPAD software (San Diego, California). Differences were considered significant at p<0.05.

C57BL6/J mice [1] = assay: Tetrad: hot plate test (analgesia); assay type: in vivo; details: 52° C., 85 min after administration, mean±SEM
Method: (§1) Mice (n=4) were treated with Δ^9-THCB (10 and 20 mg/kg) or vehicle (0.9% saline and 0.05% DMSO) by intraperitoneal (i.p.) administration. Mice were evaluated for hypomotility (open field test), hypothermia (body temperature test), antinociceptive (hot plate test), and cataleptic effects (bar test), using the tetrad tests as described in the protocol by Metna-Laurent M. et al.^62 Statistical analysis was performed using the Kruskall-Wallis test and Dunn's post hoc tests.
Hotplate test. Each mouse was placed on a hot plate (Ugo Basile), which was kept at a constant temperature of 52° C. The nociceptive response (NR) was recorded as characteristic actions of the mouse like licking of the hind paws, as well as jumping. The latency to the NR was measured in sec 85 minutes after drug or vehicle administration. A 30 or 60 sec cut-off time was used in order to prevent tissue damage.
(§2) Male C57BL6/J mice (7 weeks old; n=5) were treated with Δ^9-THCP (10, 5 and 2.5 mg/kg) or vehicle (1:1:18; ethanol:Kolliphor EL:0.9% saline) by i.p. administration. Mice were evaluated for hypomotility (open field test), hypothermia (body temperature), antinociceptive (hot plate test), and cataleptic (bar test) effects, using the tetrad tests^58. Statistical analysis was performed using the Kruskall-Wallis test and Dunn's post hoc tests.
Hot plate. Changes in nociception were evaluated by the hot plate test. On the day of experiment each mouse was placed on a hot plate (Ugo Basiele) at a constant temperature of 52° C. Licking of the hind paws, as well as jumping, were considered as a nociceptive response (NR) and the latency was measured in seconds 85 minutes after drug or vehicle administration. The latency to the NR was recorded and a 30 or 60 s cut-off time was used in order to prevent tissue damage.

C57BL6/J mice [2] = assay: Tetrad test, overall cannabimimetic profile; assay type: in vivo; details: i.p.
Method: Tetrad test. Male C57BL6/J mice 6-8 weeks (Envigo, Italy) were housed under controlled conditions (12 h light/12 h dark cycle; temperature 20-22 C; humidity 55-60%) with chow and tap water available ad libitum. All surgeries and experimental procedures were approved by the Animal Ethics Committee of University of Campania “L. Vanvitelli,” Naples. Animal care was in compliance with Italian (D.L. 116/92) and European Commission (O.J. of E.C. L358/1 […]) regulations on the protection of laboratory animals. All efforts were made to minimize animal suffering and to reduce the number of animals used. All the experiments were performed in a randomized manner by the same operator blind to pharmacological treatments.
as §1, §2

T1 sequence (P34972 whole entry): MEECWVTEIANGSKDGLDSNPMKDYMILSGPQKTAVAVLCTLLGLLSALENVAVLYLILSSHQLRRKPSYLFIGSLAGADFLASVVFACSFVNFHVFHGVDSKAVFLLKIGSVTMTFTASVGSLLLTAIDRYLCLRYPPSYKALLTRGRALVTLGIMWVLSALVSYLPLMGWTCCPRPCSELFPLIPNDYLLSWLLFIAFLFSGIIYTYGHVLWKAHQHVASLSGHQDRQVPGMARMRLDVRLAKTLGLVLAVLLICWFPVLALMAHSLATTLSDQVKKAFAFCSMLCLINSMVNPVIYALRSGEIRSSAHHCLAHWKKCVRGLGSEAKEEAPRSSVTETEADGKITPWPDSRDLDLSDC

| SMILES | pKi (human CB2 receptor; Cheng Prusoff from IC50, [^3H]WIN 55212-2 radioligand, read-out: hCB2 Ki) | pIC50 (human CB2 receptor; displacement of [^3H]WIN 55212-2, ten concentrations 1 nM to 30 μM, duplicate, SD within ±10%, read-out: hCB2 IC50) | nociceptive response in formalin test (first phase 0-7 min, second phase 15-60 min) (CD-1 mice) | hot plate: latency to nociceptive response (C57BL6/J mice [1]; Δ^9-THCB 10 mg/kg i.p., n=4, vehicle 10.15) | hot plate: latency to nociceptive response (C57BL6/J mice [1]; Δ^9-THCB 20 mg/kg i.p., n=4, vehicle 10.15) | cannabimimetic profile in the tetrad test (in words) (C57BL6/J mice [2]) | pKi (human CB2 receptor) | hot plate: latency to nociceptive response (C57BL6/J mice [1]; Δ^9-THCP 2.5 mg/kg i.p., not statistically significant, n=5, vehicle 19.20) | hot plate: latency to nociceptive response (C57BL6/J mice [1]; Δ^9-THCP 5 mg/kg i.p., n=5, vehicle 19.20) | hot plate: latency to nociceptive response (C57BL6/J mice [1]; Δ^9-THCP 10 mg/kg i.p., n=5, vehicle 19.20) | dose at which active in three of the four tetrad tests (C57BL6/J mice [2]) |
| --- | --- | --- | --- | --- | --- | --- | --- | --- | --- | --- | --- |
| CCCCc1cc(O)c2c(c1)OC(C)(C)[C@@H]1CCC(C)=C[C@@H]21 [Δ^9-THCB, (6aR,10aR)-3-butyl-6,6,9-trimethyl-6a,7,8,10a-tetrahydro-6H-benzo[c]chromen-1-ol] | 7.29 | 7.10 | reduced both first and second phase of formalin test | 7.94 s | 17.50 s | partial agonistic activity; also recorded: partial agonist for CB1 receptor | – | – | – | – | – |
| CCCCCCCc1cc(O)c2c(c1)OC(C)(C)[C@@H]1CCC(C)=C[C@@H]21 [Δ^9-THCP, (6aR,10aR)-3-heptyl-6,6,9-trimethyl-6a,7,8,10a-tetrahydro-6H-benzo[c]chromen-1-ol] | – | – | – | – | – | THC-like cannabimimetic activity; also recorded: miming the properties of full CB1 receptor agonists | 8.21 | 40.22 s | 54.38 s | 57.0 s | 5 mg/kg |
